Patent US20070015771A1, “Lonidamine analogs” (Threshold pharmaceuticals, Inc., priority 2004, published 2007)
Where two headings read alike, the source gives them in different places.

How the values were obtained:
[1] = system: H460 cells; assay: Antiproliferation assay (Alamar Blue), H460 cells; format: cell-based
Protocol: To determine the effect of lonidamine and analogs thereof on cell proliferation, the antiproliferative activity of these compounds was tested in a multi-well Alamar Blue based assay (at 2 h and 3 days). Cell growth in the presence and absence of the test compound (compounds 1-22) was compared, as measured by a fluorescence plate reader at excitation 550 nm and emission 590 nm (see Biosource International Inc., Tech Application Notes, Use of Alamar Blue in the measurement of Cell Viability and Toxicity, Determining IC50). H460 cells (ATCC HTB-177 ([…]), 4,000 cells/well/200 μl) and LNCap cells (ATCC CRL-1740, 6,000 cells/well/200 μl) were seeded in a 96 well plate in RPMI medium (Invitrogen Corporation, Carlsbad, Calif.). After 24 hours, these plates were divided into 3 groups—Control group, 2 h treatment group and 3 day treatment group. In the 2 h treatment group, after 2 h the cells were rinsed to remove the test compound and incubated for 3 days, followed by staining with AlamarBlue. The cells in the 3 day treatment group were incubated for 3 days, followed by staining with AlamarBlue. In the Control group, AlamarBlue was added to the plate at (i) day 0 and (ii) day 3 and measured to establish the control reading.

[2] = system: PWR-1E cells; assay: Antiproliferation assay 3 days, PWR-1E cells (Example 49); format: cell-based; details: read-out: PWR1e cell line IC50
Protocol: (§1) To determine the effect of lonidamine analogs thereof on cell proliferation, the antiproliferative activity of these compounds was tested in a multi-well Alamar Blue based assay (at 3 days). Cell growth in the presence and absence of the test compound was compared, as measured by a fluoresence plate reader at excitation 550 nm and emission 590 nm (see Biosource International Inc., Tech Application Notes, Use of Alamar Blue in the measurement of Cell Viability and Toxity, Determining IC50). The following cell lines were tested: PWR-1E cells ((ATCC CRL-11611), 3500 cells/well/200 μl in Keratinocyte SFM medium (Gibco Products, Invitrogen Corporation, Carlsbad, Calif.)); DU-145 cells ((ATCC HTB-81), 4000 cells/well/200 μl in MEM Eagles medium (ATCC, Manassas, Va.)); PC3 cells ((ATCC CRL-1435), 4000 cells/200 μl in Modified HAM's F12 medium (ATCC, Manassas, Va.)); PNt2 cells ((Sigma-Aldrich, 95012613-1 VL), 4000 cells/well/200 μl in RPMI medium (Gibco Products, Invitrogen Corporation, Carlsbad, Calif.), BPH-1 ((DSMZ ACC-143), 4000 cells/well/200 μl in RPMI medium (Gibco Products, Invitrogen Corporation, Carlsbad, Calif), and NCI-H460 cells ((ATCC HTB-177), 4000 cells/well/200 μl in RPMI medium (Gibco Products, Invitrogen Corporation, Carlsbad, Calif.)). The cells were seeded in a 96 well plate in a medium specified above. After 24 hours, these plates were divided into 2 groups—Control group and 3 day treatment group. A test compound was added to each plate in the treatment groups at concentrations of […] as tabulated in Table 1 (in 2 μl 1 of 100% DMSO, final DMSO concentration 1% in all wells). For NCI-H460 cells, test compounds were added to each plate in the treatment groups at concentrations of 600, 300, 100, 30, 10, 3, and 1 μM (in 2 μl of 100% DMSO, final DMSO concentration 1% in all wells). The cells in the 3 day treatment group were incubated for 3 days, followed by staining with AlamarBlue. In the Control group, AlamarBlue was added to the plate at (i) day 0 and (ii) day 3 and measured to establish the control reading. […] For the NCI-H460 cells, the capacity of the cells to proliferate was measured 5 hours after addition of AlamarBlue using the same fluorescence plate reader as stated above.

[3] = system: SH rat prostate; assay: 5 day systemic administration in male SH rats, prostate; format: in vivo; set-up: inhibition in vivo: dose or concentration left out as unconfirmed
Protocol: The effect of test compounds (lonidamine and lonidamine analogs) on the SH rat prostate was determined as follows. The test compound was orally administered daily for 5 days to male, SH rat, (n=6, 14 weeks old, Charles River Labs) at 50 mg/ml concentrations (as a 0.5% carboxymethylcellulose formulation). The control rats received an equal amount of the vehicle ([…]). Blood samples were collected 2 hours after administration on day 6, for pharmokinetic analysis of the compounds. On day 6 the rats were sacrificed and the entire prostate and the individual lobes (e.g., the ventral, dorso-lateral, and anterior lobes) were removed and weighed to measure absolute weights. Relative weights of prostate and individual lobes were calculated by dividing the absolute weight by the total body weight of the […]. Relative weights of the entire prostate, the dorsal prostate, and the ventral prostate were calculated by dividing the absolute weight by the total weight of the mouse. The histomorphology of the prostate was also analyzed and compared to that of the control or untreated prostate.

[4] = system: testes; assay: 5 day systemic administration in male SH rats, testis; format: in vivo, rat; set-up: inhibition in vivo: dose or concentration left out as unconfirmed
[5] = system: NCI-H460 cells; assay: Antiproliferation assay 3 days, NCI-H460 cells; format: cell-based; details: read-out: NCI-H460 cell line IC50
Protocol: as §1

[6] = 3 day treatment, read-out: GI50 H460 cell 3 days
[7] = read-out: GI50 H460 cell 2 hr, 2 h treatment then 3 days incubation
[8] = male SH rats, oral daily for 5 days at 50 mg/ml, day 6
[9] = Homo sapiens, NCI-H460, 72 h, 3 day treatment
[10] = Homo sapiens, PWR-1E, 72 h, 3 day treatment

Structure (SMILES): O=C(Nc1ccccn1)c1nn(Cc2ccc(Cl)cc2Cl)c2ccccc12 [Compound 7]
- GI50 [1, 6]: 20 µM
- GI50 [1, 7]: > 400 µM

Structure (SMILES): O=C(Nc1ccc(F)c(F)c1)c1nn(Cc2ccc(Cl)cc2Cl)c2ccccc12 [Compound 8]
- GI50 [1, 6]: 316 µM
- GI50 [1, 7]: > 400 µM
- IC50 ([2]; 3 day treatment): > 3 µM

Structure (SMILES): O=C(Nc1nccs1)c1nn(Cc2ccc(Cl)cc2Cl)c2ccccc12 [Compound 9]
- GI50 [1, 6]: > 400 µM
- GI50 [1, 7]: > 400 µM
- IC50 ([2]; 3 day treatment): > 100 µM

Structure (SMILES): O=C(NCCO)c1nn(Cc2ccc(Cl)cc2Cl)c2ccccc12 [Compound 10]
- GI50 [1, 6]: 50 µM
- GI50 [1, 7]: 78 µM
- IC50 ([2]; 3 day treatment): 14 µM

Structure (SMILES): O=C(OC1O[C@H](C(=O)O)[C@@H](O)[C@H](O)[C@H]1O)c1nn(Cc2ccc(Cl)cc2Cl)c2ccccc12 (some centres unmarked) [Compound 15]
- GI50 ([1]; Homo sapiens, NCI-H460, 72 h, 3 day treatment, read-out: GI50 H460 cell 3 days): 316 µM
- GI50 ([1]; Homo sapiens, NCI-H460, read-out: GI50 H460 cell 2 hr, 2 h treatment then 3 days incubation): > 400 µM
- IC50 ([2]; Homo sapiens, PWR-1E, 72 h): 80 µM

Structure (SMILES): O=C(O)c1nn(Cc2ccc(-c3ccccc3)cc2)c2ccccc12 [Compound 22]
- GI50 [1, 6]: 158 µM
- GI50 [1, 7]: > 400 µM
- IC50 ([2]; 3 day treatment): 25 µM

Structure (SMILES): NC(=O)c1nn(Cc2c(Cl)cccc2Cl)c2ccccc12 [Compound 25]
- IC50 ([2]; Homo sapiens, PWR-1E, 72 h): > 100 µM

Structure (SMILES): O=C(O)c1nn(Cc2ccccc2Cl)c2ccccc12 [Compound 27]
- IC50 ([2]; 3 day treatment): 30 µM

Structure (SMILES): CNC(=O)c1nn(Cc2c(Cl)cccc2Cl)c2ccccc12 [Compound 37]
- IC50 ([2]; 3 day treatment): 36 µM

Structure (SMILES): O=C(NCCN1CCOCC1)c1nn(Cc2c(Cl)cccc2Cl)c2ccccc12 [Compound 43]
- IC50 ([2]; 3 day treatment): 45 µM

Structure (SMILES): NNC(=O)c1nn(Cc2c(Cl)cccc2Cl)c2ccccc12 [Compound 44]
- IC50 ([2]; 3 day treatment): > 10 µM

Structure (SMILES): O=C(NC1CC1)c1nn(Cc2c(Cl)cccc2Cl)c2ccccc12 [Compound 46]
- IC50 ([2]; 3 day treatment): > 30 µM

Structure (SMILES): O=C(NO)c1nn(Cc2ccc(Cl)cc2Cl)c2ccc(F)cc12 [Compound 47]
- IC50 ([2]; 3 day treatment): 5.6 µM

Structure (SMILES): O=C(c1nn(Cc2ccc(Cl)cc2Cl)c2ccccc12)N1CCOCC1 [Compound 48]
- Prostate shrinkage [3, 8]: 3.3%
- IC50 ([2]; 3 day treatment): > 10 µM
- Testis shrinkage [4, 8]: 4.3%

Structure (SMILES): CN(C)C(=O)c1nn(Cc2ccc(Cl)cc2Cl)c2ccccc12 [Compound 49]
- IC50 ([2]; 3 day treatment): > 100 µM

Structure (SMILES): CC(C)NC(=O)c1nn(Cc2ccccc2)c2ccccc12 [Compound 50]
- IC50 ([2]; 3 day treatment): 23 µM

Structure (SMILES): Cc1ccc2c(c1)c(C(=O)NO)nn2Cc1ccc(Cl)cc1Cl [Compound 52]
- IC50 ([2]; 3 day treatment): 0.34 µM

Structure (SMILES): CONC(=O)c1nn(Cc2ccc(Cl)cc2Cl)c2ccc(C)cc12 [Compound 57]
- IC50 ([2]; 3 day treatment): 39 µM

Structure (SMILES): O=Cc1nn(Cc2ccc(Cl)cc2Cl)c2ccccc12 [Compound 61]
- IC50 ([2]; Homo sapiens, PWR-1E, 72 h): 1.5 µM

Structure (SMILES): CC(c1ccc(Cl)cc1Cl)n1nc(C(=O)O)c2ccccc21 (centres unmarked) [Compound 67]
- IC50 ([5]; Homo sapiens, NCI-H460, 72 h): 148 µM
- inhibition in vivo ([3]; Rattus norvegicus, po, 144 h, read-out: Prostate shrinkage): 18.2%
- IC50 ([2]; Homo sapiens, PWR-1E, 72 h): 21 µM
- inhibition in vivo ([4]; Rattus norvegicus, po, 144 h, read-out: Testis shrinkage): 34.9%

Structure (SMILES): O=C(O)c1nn(Cc2cc3c(cc2Cl)OCO3)c2ccccc12 [Compound 69]
- IC50 ([2]; Homo sapiens, PWR-1E, 72 h): 145 µM

Structure (SMILES): Cc1noc(C)c1Cn1nc(C(=O)O)c2ccccc21 [Compound 71]
- IC50 ([2]; Homo sapiens, PWR-1E, 72 h): > 300 µM

Structure (SMILES): COc1ccccc1Cn1nc(C(=O)O)c2ccccc21 [Compound 72]
- IC50 ([2]; Homo sapiens, PWR-1E, 72 h): 245 µM

Structure (SMILES): O=C(O)c1nn(Cc2ccc(Cl)nc2)c2ccccc12 [Compound 73]
- IC50 ([2]; Homo sapiens, PWR-1E, 72 h): > 300 µM

Structure (SMILES): O=C(O)c1nn(Cc2ccc3c(c2)OCO3)c2ccccc12 [Compound 74]
- IC50 ([5]; Homo sapiens, NCI-H460, 72 h): 290 µM
- IC50 ([2]; Homo sapiens, PWR-1E, 72 h): > 100 µM

Structure (SMILES): Cc1cc(Cn2nc(C(=O)O)c3ccccc32)n(C)n1 [Compound 75]
- IC50 ([5]; Homo sapiens, NCI-H460, 72 h): > 180 µM
- IC50 ([2]; Homo sapiens, PWR-1E, 72 h): > 300 µM

Structure (SMILES): O=C(O)c1nn(Cc2ccccc2O)c2ccccc12 [Compound 76]
- IC50 ([2]; Homo sapiens, PWR-1E, 72 h): 288 µM

Structure (SMILES): O=C(O)c1nn(Cc2ccc(O)cc2)c2ccccc12 [Compound 77]
- IC50 ([2]; Homo sapiens, PWR-1E, 72 h): > 100 µM

Structure (SMILES): O=C(O)c1nn(Cc2ccccn2)c2ccccc12 [Compound 84]
- IC50 ([5]; Homo sapiens, NCI-H460, 72 h): > 600 µM

Structure (SMILES): O=C(O)c1nn(Cc2cccnc2)c2ccccc12 [Compound 85]
- IC50 ([5]; Homo sapiens, NCI-H460, 72 h): > 600 µM

Structure (SMILES): O=C(O)c1nn(Cc2ccncc2)c2ccccc12 [Compound 86]
- IC50 ([5]; Homo sapiens, NCI-H460, 72 h): > 600 µM

Structure (SMILES): O=C(O)c1nn(Cc2cnc(Cl)c(Cl)c2)c2ccccc12 [Compound 87]
- IC50 ([5]; Homo sapiens, NCI-H460, 72 h): 323 µM

Structure (SMILES): O=Cc1nc(Cc2ccc(Cl)cc2Cl)n2ccccc12 [Compound 88]
- IC50 [5, 9]: 48 µM
- IC50 [2, 10]: 12 µM

Structure (SMILES): O=C(O)c1nc(Cc2ccc(Cl)cc2Cl)n2ccccc12 [Compound 89]
- IC50 ([5]; 3 day treatment): 41 µM
- IC50 ([2]; 3 day treatment): 10 µM

Structure (SMILES): OCc1nc(Cc2ccc(Cl)cc2Cl)n2ccccc12 [Compound 92]
- IC50 [5, 9]: 43 µM
- IC50 [2, 10]: 11 µM

Structure (SMILES): O=C(O)c1nn(Cc2ccc(Cl)nc2)c2ccccc12 [Compound 94]
- IC50 ([5]; Homo sapiens, NCI-H460, 72 h): > 600 µM

Structure (SMILES): N#Cc1cc(Cl)ccc1Cn1nc(C(=O)O)c2ccccc21 [Compound 95]
- IC50 ([5]; Homo sapiens, NCI-H460, 72 h): 275 µM
- IC50 ([2]; Homo sapiens, PWR-1E, 72 h): 85 µM

Structure (SMILES): O=C(O)c1nn(C(=O)c2ccc(Cl)cc2Cl)c2ccccc12 [Compound 98]
- IC50 [2, 10]: 4 µM

Structure (SMILES): O=C(O)c1cn(Cc2cc(Cl)ccc2Cl)c2ccccc12 [Compound 100]
- IC50 ([5]; Homo sapiens, NCI-H460, 72 h): 125 µM

Structure (SMILES): O=C(O)c1nn(Cc2cc(Cl)ccc2F)c2ccccc12 [Compound 103]
- IC50 ([5]; Homo sapiens, NCI-H460, 72 h): 219 µM
- IC50 ([2]; Homo sapiens, PWR-1E, 72 h): 132 µM

Structure (SMILES): O=C(O)c1nn(S(=O)(=O)c2ccc(Cl)cc2Cl)c2ccccc12 [Compound 104]
- IC50 ([5]; 3 day treatment): 195 µM
- IC50 ([2]; 3 day treatment): 19 µM

Structure (SMILES): O=C(O)c1c2ccccc2nn1S(=O)(=O)c1ccc(Cl)cc1Cl [Compound 105]
- IC50 ([5]; 3 day treatment): 182 µM
- IC50 ([2]; 3 day treatment): 21 µM

Structure (SMILES): O=C(O)c1nn(Cc2cc(C(F)(F)F)ccc2Cl)c2ccccc12 [Compound 106]
- IC50 ([5]; Homo sapiens, NCI-H460, 72 h): 4 µM
